Results on 16 compounds are retold here after patent US4933361A, “Derivatives of bicyclic aminoacids agents containing these compounds and their use” (Hoechst Aktiengesellschaft, priority 1981, dated 1990).

Counter-ions that a name gives are not always drawn.

For orientation: ED50 means the dose that gives a 50% effect, or the effect in half of the subjects. A low value points to an effect at a small dose.

The first test concerns pressor reaction induced by 310 ng of angiotensin I. Put plainly: Intraduodenal administration to the anesthetized rat, 50% inhibition of the pressor reaction induced by angiotensin I. The class given is in vivo. As to conditions: 0.5 h, Table I, H atoms on C-3a and C-(6+n)a cis, 310 ng angiotensin I, 30 min after administration. From the text:
After administration in the dose . . . =ED50 :
`CCOC(=O)[C@H](CCc1ccccc1)N[C@@H](C)C(=O)N1[C@@H]2CCCC[C@@H]2C[C@H]1C(=O)O` [Example 17, N-(1S-Carboethoxy-3-phenylpropyl)-S-alanyl-2S,3aR,7aR-octahydroindole-2-carboxylic acid hydrochloride] gave a 50% effective dose (ED50) of 0.05 mg/kg. Compound `C[C@H](N[C@@H](CCc1ccccc1)C(=O)O)C(=O)N1[C@@H]2CCCC[C@@H]2C[C@H]1C(=O)O` [Example 20, N-(1S-Carboxy-3-phenylpropyl)-S-alanyl-2S,3aR,7aR-octahydroindole-2-carboxylic acid] came in with an ED50 of 0.6 mg/kg. This ED50 is about 12-fold higher than that of the compound before. The same measure, in the same setting: then `CCOC(=O)[C@H](CCc1ccccc1)N[C@@H](C)C(=O)N1[C@@H]2CCC[C@@H]2C[C@H]1C(=O)O` [Example 18, N-(1S-Carboethoxy-3-phenylpropyl)-S-alanyl-2S,3aR,6aR-octahydrocyclopenta[b]pyrrole-2-carboxylic acid hydrochloride], with 0.04 mg/kg; and `C[C@H](N[C@@H](CCc1ccccc1)C(=O)O)C(=O)N1[C@@H]2CCCCC[C@@H]2C[C@H]1C(=O)O` [Example 22, N-(1S-Carboxy-3-phenylpropyl)-S-alanyl-2S,3aR,8aR-decahydrocyclohepta[b]pyrrole-2-carboxylic acid], with 0.84 mg/kg. The same measure, in the same setting: the value for `CCOC(=O)[C@H](CCc1ccccc1)N[C@@H](C)C(=O)N1[C@@H]2CCCCC[C@@H]2C[C@H]1C(=O)O` [Example 19, N-(1S-Carboethoxy-3-phenylpropyl)-S-alanyl-2S,3aR,8aR-decahydrocyclohepta[b]pyrrole-2-carboxylic acid hydrochloride] was 0.23 mg/kg. In turn, `C[C@H](N[C@@H](CCc1ccccc1)C(=O)O)C(=O)N1[C@@H]2CCC[C@@H]2C[C@H]1C(=O)O` [Example 21, N-(1S-Carboxy-3-phenylpropyl)-S-alanyl-2S,3aR,6aR-octahydrocyclopenta[b]pyrrole-2-carboxylic acid] registered an ED50 of 0.7 mg/kg.

The same test, now with this note: 0.5 h, Table II, H atoms on C-3a and C-(6+n)a trans, X = phenyl, R1 = methyl, 310 ng angiotensin I, 30 min after administration.
On to `CCOC(=O)[C@H](CCc1ccccc1)N[C@@H](C)C(=O)N1[C@H](C(=O)O)C[C@H]2CCC[C@@H]21` [Example 44, N-(1S-Carboethoxy-3-phenylpropyl)-S-alanyl-2S,3aR,6aS-octahydrocyclopenta[b]pyrrole-2-carboxylic acid], for which it took a dose of 0.04 mg/kg to reach the 50% effect level (ED50). Still for that read-out and setting: then `C[C@H](N[C@@H](CCc1ccccc1)C(=O)O)C(=O)N1[C@H](C(=O)O)C[C@H]2CCCCC[C@@H]21` [Example 79, N-(1S-Carboxy-3-phenylpropyl)-S-alanyl-2S,3aR,6aS-decahydrocyclohepta[b]pyrrole-2-carboxylic acid], with 1.08 mg/kg. Consider `CCOC(=O)[C@H](CCc1ccccc1)N[C@@H](C)C(=O)N1[C@H](C(=O)O)C[C@H]2CCCCC[C@@H]21` [Example 46, N-(1S-Carboethoxy-3-phenylpropyl)-S-alanyl-2S,3aR,8aS-decahydrocyclohepta[b]pyrrole-2-carboxylic acid], for which it took a dose of 0.11 mg/kg to reach the 50% effect level (ED50). Still for that read-out and setting: the value for `C[C@H](N[C@@H](CCc1ccccc1)C(=O)O)C(=O)N1[C@H](C(=O)O)C[C@H]2CCC[C@@H]21` [Example 77, N-(1S-Carboxy-3-phenylpropyl)-S-alanyl-2S,3aR,6aS-octahydrocyclopenta[b]pyrrole-2-carboxylic acid] was 0.7 mg/kg; that for `C[C@H](N[C@@H](CCc1ccccc1)C(=O)O)C(=O)N1[C@H](C(=O)O)C[C@H]2CCCC[C@@H]21` [Example 75, N-(1S-Carboxy-3-phenylpropyl)-S-alanyl-2S,3aR,7aS-octahydroindole-2-carboxylic acid] was 0.8 mg/kg. On the same count and under the same terms, the value for `CCOC(=O)[C@H](CCc1ccccc1)N[C@@H](C)C(=O)N1[C@H](C(=O)O)C[C@H]2CCCC[C@@H]21` [Example 42, N-(1S-Carboethoxy-3-phenylpropyl)-S-alanyl-2S,3aR,7aS-octahydroindole-2-carboxylic acid] was 0.055 mg/kg; that for `CCOC(=O)[C@H](CCc1ccccc1)N[C@@H](C)C(=O)N1[C@@H]2CCCC[C@H]2C[C@H]1C(=O)O` [Example 43, N-(1S-Carboethoxy-3-phenylpropyl)-S-alanyl-2S,3aS,7aR-octahydroindole-2-carboxylic acid] was 0.065 mg/kg; that for `C[C@H](N[C@@H](CCc1ccccc1)C(=O)O)C(=O)N1[C@@H]2CCCC[C@H]2C[C@H]1C(=O)O` [Example 76, N-(1S-Carboxy-3-phenylpropyl)-S-alanyl-2S,3aS,7aR-octahydroindole-2-carboxylic acid] was 0.85 mg/kg. `CCOC(=O)[C@H](CC(=O)c1ccccc1)N[C@@H](C)C(=O)N1[C@H](C(=O)O)C[C@H]2CCCC[C@@H]21` [Example 67, N-(1S-Carboethoxy-3-keto-3-phenylpropyl)-S-alanyl-2S,3aR,7aS-octahydroindole-2-carboxylic acid] showed an ED50 of 0.18 mg/kg.

The same test, now with this note: Table I, H atoms on C-3a and C-(6+n)a cis, 310 ng angiotensin I, 30 min after administration.
Consider `CCOC(=O)[C@H](CC(=O)c1ccccc1)N[C@@H](C)C(=O)N1C(C(=O)O)CC2CCCCC21.O=C(O)C(F)(F)F` (stereo partly drawn) [Example 29, N-(1S-Carboethoxy-3-phenyl-3-oxopropyl)-S-alanyl-2β,3aβ,7aβ-octahydroindole-2-carboxylic acid trifluoroacetate], for which the “ED50 (50% inhibition of the pressor reaction induced by angiotensin I)” value was 0.39 mg/kg.
